Here are results for one substance from US11884711B2, “Fusion proteins of GDF15 and use thereof” (BEIJING QL BIOPHARMACEUTICAL CO., LTD., priority 2020, dated 2024).

The test system of this assay is C57BL/6 mice. Put plainly: In vivo food intake and body weight in C57BL/6 mice. Conditions: 30 nmol/kg subcutaneously every day for 10 days. As to the method: 10 week old male C57BL/6 mice were injected everyday subcutaneously with 30 nmol/kg of the fusion proteins for 10 days (n=5/group), semaglutide was studied in parallel as a control. Body weight (BW) was measured daily for each individual animal and food intake was measured daily for each entire treatment group. Day 1 and Day 10 are the first day and the last day of treatment. % BW loss=100*(BW on Day n−BW on Day 1)/(BW on Day 1). Cumulative food intake on Day n represents sum of food intake from Day 1 to Day n. Data are indicated as mean values and standard error (SEM) or pooled values. Body weight reduction on Day 11 is calculated by −1*(% BW loss of treatment group-% BW loss of vehicle group); Cumulative food intake reduction on Day 11 is calculated by −100*(cumulative food intake of treatment group−cumulative food intake of vehicle group)/cumulative food intake of vehicle group.

For semaglutide [reference compound], the “Body weight reduction at 30 nmol/kg (% reduction compared to vehicle) (Day 11)” value came to 7.27% and the “Cumulative food intake reduction at 30 nmol/kg (% reduction compared to vehicle) (Day 11)” value is 11.8%.
